biological target: hcGAS (Homo sapiens, UniProt Q8N884); experiment: hcGAS Kinase-Glo assay (ATP depletion); format: biochemical; conditions: 40 nM hcGAS, 100 μM ATP, 100 μM GTP, 25 nM dsDNA, 3 h incubation
Procedure: cGAS catalyzes the cyclization of ATP and GTP to produce cGAMP, which is the activating ligand of STING. Human cGAS (hcGAS) inhibition can thus be quantified by measuring how much cGAMP is formed either indirectly, by monitoring ATP-depletion as in the hcGAS Kinase-Glo assay (as described below), or directly, such as using the hcGAS LCMS assay (as described below).
(i) hcGAS Kinase-Glo Assay
Compounds were tested for their human-cGAS […] inhibition activity using the methodology reported in Lama et al., “Development of human cGAS-specific small molecule inhibitors for repression of dsDNA-triggered interferon expression”, Nature Communications 10, Article number: 2261 (2019), with slight changes to some conditions as shown in Table B.
The results of the assay, expressed in IC50 values, are reported in Table D with the following designations: A represents an IC50 value<0.01 μM; B represents an IC50 value≥0.01 μM and <0.03 μM; C represents an IC50 value≥0.03 μM and <0.1 μM; D represents an IC50 value≥0.1.

Chain of hcGAS (Q8N884 whole entry): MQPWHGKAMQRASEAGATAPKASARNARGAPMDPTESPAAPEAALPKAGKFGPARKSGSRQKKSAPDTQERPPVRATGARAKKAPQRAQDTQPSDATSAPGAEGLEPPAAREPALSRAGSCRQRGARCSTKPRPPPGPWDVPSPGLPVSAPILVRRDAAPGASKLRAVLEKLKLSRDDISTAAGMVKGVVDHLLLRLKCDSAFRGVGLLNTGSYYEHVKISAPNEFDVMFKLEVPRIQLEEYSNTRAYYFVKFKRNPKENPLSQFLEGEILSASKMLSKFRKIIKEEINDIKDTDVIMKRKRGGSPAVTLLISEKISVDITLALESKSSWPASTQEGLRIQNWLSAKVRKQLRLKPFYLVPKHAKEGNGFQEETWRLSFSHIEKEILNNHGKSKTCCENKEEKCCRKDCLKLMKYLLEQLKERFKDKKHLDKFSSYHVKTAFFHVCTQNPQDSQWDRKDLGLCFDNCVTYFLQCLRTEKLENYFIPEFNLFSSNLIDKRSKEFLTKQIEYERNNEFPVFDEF

Row | SMILES | IC50
1 | COc1c(N[C@H]2C[C@H](O)C2)cc(C(=O)Nc2nnc(-n3nccc3C)s2)oc1=O [Compound 16, 4-(((1,3-trans)-3-hydroxycyclobutyl)amino)-3-methoxy-N-(5-(5-methyl-1H-pyrazol-1-yl)-1,3,4-thiadiazol-2-yl)-2-oxo-2H-pyran-6-carboxamide] | 30 to 100 nM
2 | COc1c(NC2CCS(=O)(=O)CC2)cc(C(=O)Nc2nnc(-n3nccc3C)s2)oc1=O [Compound 29, 4-((1,1-dioxidotetrahydro-2H-thiopyran-4-yl)amino)-3-methoxy-N-(5-(5-methyl-1H-pyrazol-1-yl)-1,3,4-thiadiazol-2-yl)-2-oxo-2H-pyran-6-carboxamide] | 30 to 100 nM
3 | COCCCNc1cc(C(=O)Nc2nnc(-n3nccc3C)s2)oc(=O)c1OC [Compound 32, 5-methoxy-4-(3-methoxypropylamino)-N-(5-(5-methyl-1H-pyrazol-1-yl)-1,3,4-thiadiazol-2-yl)-6-oxo-6H-pyran-2-carboxamide] | 30 to 100 nM
4 | COc1c(NCCCO)cc(C(=O)Nc2nnc(-n3nccc3C)s2)oc1=O [Compound 35, 4-((3-hydroxypropyl)amino)-3-methoxy-N-(5-(5-methyl-1H-pyrazol-1-yl)-1,3,4-thiadiazol-2-yl)-2-oxo-2H-pyran-6-carboxamide] | 10 to 30 nM
5 | COCC12CC(Nc3cc(C(=O)Nc4nnc(-n5nccc5C)s4)oc(=O)c3OC)(C1)C2 [Compound 44, 3-methoxy-4-((3-(methoxymethyl)bicyclo[1.1.1]pentan-1-yl)amino)-N-(5-(5-methyl-1H-pyrazol-1-yl)-1,3,4-thiadiazol-2-yl)-2-oxo-2H-pyran-6-carboxamide] | 30 to 100 nM
6 | COc1c(NC23CC(C#N)(C2)C3)cc(C(=O)Nc2nnc(-n3nccc3C)s2)oc1=O [Compound 45, 4-((3-cyanobicyclo[1.1.1]pentan-1-yl)amino)-3-methoxy-N-(5-(5-methyl-1H-pyrazol-1-yl)-1,3,4-thiadiazol-2-yl)-2-oxo-2H-pyran-6-carboxamide] | 10 to 30 nM
7 | COCCN(CCOC)c1cc(C(=O)Nc2nnc(-n3nccc3C)s2)oc(=O)c1OC [Compound 63, 4-(bis(2-methoxyethyl)amino)-3-methoxy-N-(5-(5-methyl-1H-pyrazol-1-yl)-1,3,4-thiadiazol-2-yl)-2-oxo-2H-pyran-6-carboxamide] | ≥ 100 nM
8 | COc1c(N[C@H]2C[C@@H](O)C2)cc(C(=O)Nc2nnc(-n3nccc3C)s2)oc1=O [Compound 65, 4-(((1,3-cis)-3-hydroxycyclobutyl)amino)-3-methoxy-N-(5-(5-methyl-1H-pyrazol-1-yl)-1,3,4-thiadiazol-2-yl)-2-oxo-2H-pyran-6-carboxamide] | 30 to 100 nM
9 | COc1c(N[C@H]2C[C@H](OC)C2)cc(C(=O)Nc2nnc(-n3nccc3C)s2)oc1=O [Compound 69, 3-methoxy-4-(((1,3-trans)-3-methoxycyclobutyl)amino)-N-(5-(5-methyl-1H-pyrazol-1-yl)-1,3,4-thiadiazol-2-yl)-2-oxo-2H-pyran-6-carboxamide] | 10 to 30 nM
10 | COc1c(N[C@@H]2CCS(=O)(=O)C2)cc(C(=O)Nc2nnc(-n3nccc3C)s2)oc1=O [Compound 82, (R)-4-((1,1-dioxidotetrahydrothiophen-3-yl)amino)-3-methoxy-N-(5-(5-methyl-1H-pyrazol-1-yl)-1,3,4-thiadiazol-2-yl)-2-oxo-2H-pyran-6-carboxamide] | 30 to 100 nM
11 | COc1c(NCC(F)F)cc(C(=O)Nc2nnc(-n3nccc3C)s2)oc1=O [Compound 89, 4-((2,2-difluoroethyl)amino)-3-methoxy-N-(5-(5-methyl-1H-pyrazol-1-yl)-1,3,4-thiadiazol-2-yl)-2-oxo-2H-pyran-6-carboxamide] | 10 to 30 nM
12 | COc1c(NCC(F)(F)F)cc(C(=O)Nc2nnc(-n3nccc3C)s2)oc1=O [Compound 90, 3-methoxy-N-(5-(5-methyl-1H-pyrazol-1-yl)-1,3,4-thiadiazol-2-yl)-2-oxo-4-((2,2,2-trifluoroethyl)amino)-2H-pyran-6-carboxamide] | 10 to 30 nM
13 | COc1c(NC2COC2)cc(C(=O)Nc2nnc(-n3nccc3C)s2)oc1=O [Compound 104, 3-methoxy-N-(5-(5-methyl-1H-pyrazol-1-yl)-1,3,4-thiadiazol-2-yl)-4-(oxetan-3-ylamino)-2-oxo-2H-pyran-6-carboxamide] | 30 to 100 nM
14 | COc1c(N[C@H]2COC[C@H]2O)cc(C(=O)Nc2nnc(-n3nccc3C)s2)oc1=O [Compound 113, 4-(((3S,4S)-4-hydroxytetrahydrofuran-3-yl)amino)-3-methoxy-N-(5-(5-methyl-1H-pyrazol-1-yl)-1,3,4-thiadiazol-2-yl)-2-oxo-2H-pyran-6-carboxamide] | 10 to 30 nM
15 | COc1c(NC23CC(C(F)F)(C2)C3)cc(C(=O)Nc2nnc(-n3nccc3C)s2)oc1=O [Compound 115, 4-((3-(difluoromethyl)bicyclo[1.1.1]pentan-1-yl)amino)-3-methoxy-N-(5-(5-methyl-1H-pyrazol-1-yl)-1,3,4-thiadiazol-2-yl)-2-oxo-2H-pyran-6-carboxamide] | 10 to 30 nM
16 | COCCNc1cc(C(=O)Nc2nnc(-n3ncc(F)c3Cl)s2)oc(=O)c1OC [Compound 134, N-(5-(5-chloro-4-fluoro-1H-pyrazol-1-yl)-1,3,4-thiadiazol-2-yl)-5-methoxy-4-(2-methoxyethylamino)-6-oxo-6H-pyran-2-carboxamide] | 30 to 100 nM
17 | COCCNc1cc(C(=O)Nc2nnc(-c3c(C)csc3C#N)s2)oc(=O)c1OC [Compound 137, N-(5-(2-cyano-4-methylthiophen-3-yl)-1,3,4-thiadiazol-2-yl)-3-methoxy-4-((2-methoxyethyl)amino)-2-oxo-2H-pyran-6-carboxamide] | ≥ 100 nM
18 | COCCNc1cc(C(=O)Nc2nnc(-c3sncc3Cl)s2)oc(=O)c1OC [Compound 139, N-(5-(4-chloroisothiazol-5-yl)-1,3,4-thiadiazol-2-yl)-3-methoxy-4-((2-methoxyethyl)amino)-2-oxo-2H-pyran-6-carboxamide] | 30 to 100 nM

Next, values leading:

Row | IC50 | SMILES
19 | 10 to 30 nM | COc1c(N2CCC(CO)CC2)cc(C(=O)Nc2nnc(-n3nccc3C)s2)oc1=O [Compound 12, 4-(4-(hydroxymethyl)piperidin-1-yl)-3-methoxy-N-(5-(5-methyl-1H-pyrazol-1-yl)-1,3,4-thiadiazol-2-yl)-2-oxo-2H-pyran-6-carboxamide]
20 | 10 to 30 nM | COc1c(N2CCC(OC)CC2)cc(C(=O)Nc2nnc(-n3nccc3C)s2)oc1=O [Compound 19, 3-methoxy-4-(4-methoxypiperidin-1-yl)-N-(5-(5-methyl-1H-pyrazol-1-yl)-1,3,4-thiadiazol-2-yl)-2-oxo-2H-pyran-6-carboxamide]
21 | 30 to 100 nM | COc1c(N[C@H](C)CO)cc(C(=O)Nc2nnc(-n3nccc3C)s2)oc1=O [Compound 25, (R)-4-((1-hydroxypropan-2-yl)amino)-3-methoxy-N-(5-(5-methyl-1H-pyrazol-1-yl)-1,3,4-thiadiazol-2-yl)-2-oxo-2H-pyran-6-carboxamide]
22 | 30 to 100 nM | COc1c(N2CCC[C@@H]2CO)cc(C(=O)Nc2nnc(-n3nccc3C)s2)oc1=O [Compound 34, (R)-4-(2-(hydroxymethyl)pyrrolidin-1-yl)-5-methoxy-N-(5-(5-methyl-1H-pyrazol-1-yl)-1,3,4-thiadiazol-2-yl)-6-oxo-6H-pyran-2-carboxamide]
23 | 10 to 30 nM | COC[C@@H]1CCCN1c1cc(C(=O)Nc2nnc(-n3nccc3C)s2)oc(=O)c1OC [Compound 39, (S)-3-methoxy-4-(2-(methoxymethyl)pyrrolidin-1-yl)-N-(5-(5-methyl-1H-pyrazol-1-yl)-1,3,4-thiadiazol-2-yl)-2-oxo-2H-pyran-6-carboxamide]
24 | 10 to 30 nM | COc1c(N2CCC[C@H]2CO)cc(C(=O)Nc2nnc(-n3nccc3C)s2)oc1=O [Compound 40, (S)-4-(2-(hydroxymethyl)pyrrolidin-1-yl)-3-methoxy-N-(5-(5-methyl-1H-pyrazol-1-yl)-1,3,4-thiadiazol-2-yl)-2-oxo-2H-pyran-6-carboxamide]
25 | 10 to 30 nM | COc1c(N2CCC(O)CC2)cc(C(=O)Nc2nnc(-n3nccc3C)s2)oc1=O [Compound 46, 4-(4-hydroxypiperidin-1-yl)-3-methoxy-N-(5-(5-methyl-1H-pyrazol-1-yl)-1,3,4-thiadiazol-2-yl)-2-oxo-2H-pyran-6-carboxamide]
26 | 10 to 30 nM | COc1c(N2CC[C@H](CO)C2)cc(C(=O)Nc2nnc(-n3nccc3C)s2)oc1=O [Compound 58, (S)-4-(3-(hydroxymethyl)pyrrolidin-1-yl)-3-methoxy-N-(5-(5-methyl-1H-pyrazol-1-yl)-1,3,4-thiadiazol-2-yl)-2-oxo-2H-pyran-6-carboxamide]
27 | 30 to 100 nM | COC[C@H]1CCN(c2cc(C(=O)Nc3nnc(-n4nccc4C)s3)oc(=O)c2OC)C1 [Compound 87, (S)-3-methoxy-4-(3-(methoxymethyl)pyrrolidin-1-yl)-N-(5-(5-methyl-1H-pyrazol-1-yl)-1,3,4-thiadiazol-2-yl)-2-oxo-2H-pyran-6-carboxamide]
28 | 10 to 30 nM | COc1c(N2CC[C@@H](CO)C2)cc(C(=O)Nc2nnc(-n3nccc3C)s2)oc1=O [Compound 88, (R)-4-(3-(hydroxymethyl)pyrrolidin-1-yl)-3-methoxy-N-(5-(5-methyl-1H-pyrazol-1-yl)-1,3,4-thiadiazol-2-yl)-2-oxo-2H-pyran-6-carboxamide]
29 | 30 to 100 nM | CNc1cc(C(=O)Nc2nnc(-n3nccc3C)s2)oc(=O)c1OC [Compound 105, 3-methoxy-N-(5-(5-methyl-1H-pyrazol-1-yl)-1,3,4-thiadiazol-2-yl)-4-(methylamino)-2-oxo-2H-pyran-6-carboxamide]

Reference: patent US20240270740A1, “INHIBITORS OF CYCLIC GMP-AMP SYNTHASE AND USES THEREOF” (Ventus Therapeutics U.S., Inc., priority 2022, published 2024)
